# Data: PMC6001364 (European journal of medicinal chemistry, 2018)
# Where two headings read alike, the source gives them in different places.
# Columns and labels:
# WT HIV-1 strain (IIIB) [1] = type: cell-based; conditions: ratio of CC50/EC50, MT-4 cells
# [2] = tested on: K103 N + Y181C double mutant HIV-1 strain (RES056); assay: Anti-HIV-1 activity against double mutant RES056 in MT-4 cells, MTT method; type: cell-based; conditions: for EC50 RES056: MT-4 cells, MTT method; for SI RES056: ratio of CC50/EC50, MT-4 cells, values given with symbol X1
# [3] = tested on: HIV-1 E138K mutant strain; assay: microbe, parasite or virus in culture; type: cell-based
# [4] = tested on: HIV-1 Y181C mutant strain; type: cell-based
# [5] = tested on: HIV-1 L100I mutant strain; assay: microbe, parasite or virus in culture; type: cell-based
# [6] = tested on: HIV-1 Y188L mutant strain; assay: microbe, parasite or virus in culture; type: cell-based; conditions: for EC50: Human immunodeficiency virus 1, MT4, read-out: EC50 Y188L
# [7] = tested on: K103 N + Y181C double mutant HIV-1 strain (RES056); conditions: cited from earlier work
# WT HIV-1 strain (IIIB) [8] = conditions: cited from earlier work
# MT-4 cells = conditions: cited from earlier work
# HIV-1 RT = HIV-1 RT (Human immunodeficiency virus type 1 group M subtype B, UniProt P03366); conditions: read-out: IC50 against HIV-1 RT; cited from earlier work
# [9] = tested on: HIV-1 F227L + V106A mutant strain; assay: microbe, parasite or virus in culture; type: cell-based
# wild-type HIV-1 (NL4-3) = assay: Inhibition of wild-type HIV-1; type: cell-based; conditions: ratio of CC50/EC50, TZM-bl cells
# [10] = Cytotoxicity in mock-infected MT-4 cells, MTT method; type: cell-based; conditions: human
# [11] = tested on: HIV-1 K103 N mutant strain; type: cell-based; conditions: ratio of CC50/EC50, MT-4 cells
smiles,measurement,setting,value
"Cc1cc(C)c(Oc2cc(Nc3ccc(C#N)cc3)ncc2C(=O)NCc2cn(Cc3ccc([N+](=O)[O-])cc3)nn2)c(C)c1 [3a14, N-((1-(4-nitrobenzyl)-1H-1,2,3-triazol-4-yl)methyl)-6-((4-cyanophenyl)amino)-4-(mesityloxy)nicotinamide]",SI IIIB,WT HIV-1 strain (IIIB) [1],≥3498
"Cc1cc(C)c(Oc2cc(Nc3ccc(C#N)cc3)ncc2C(=O)NCc2cn(Cc3cccc(C#N)c3)nn2)c(C)c1 [3a9, N-((1-(3-cyanobenzyl)-1H-1,2,3-triazol-4-yl)methyl)-6-((4-cyanophenyl)amino)-4-(mesityloxy)nicotinamide]",SI IIIB,WT HIV-1 strain (IIIB) [1],≥5213
"CC(=O)Cn1cc(CNC(=O)c2cnc(Nc3ccc(C#N)cc3)cc2Oc2c(C)cc(C)cc2C)nn1 [3b3, 6-((4-cyanophenyl)amino)-4-(mesityloxy)-N-((1-(2-oxopropyl)-1H-1,2,3-triazol-4-yl)methyl)nicotinamide]",EC50 RES056,[2],low micromolar concentration
"Cc1cn([C@H]2C[C@H](N=[N+]=[N-])[C@@H](CO)O2)c(=O)[nH]c1=O [AZT, Zidovudine]",EC50,"[3]; Human immunodeficiency virus 1, MT4, read-out: EC50 E138K",13 ± 4 nM
same,Resistance Folds Y181C,[4]; ratio of EC50 against mutant strain/EC50 against WT strain,1.0
"Cc1cc(C)c(Oc2cc(Nc3ccc(C#N)cc3)ncc2C(=O)NCc2cn(Cc3ccccc3Cl)nn2)c(C)c1 [3a3, N-((1-(2-chlorobenzyl)-1H-1,2,3-triazol-4-yl)methyl)-6-((4-cyanophenyl)amino)-4-(mesityloxy)nicotinamide]",SI IIIB,WT HIV-1 strain (IIIB) [1],≥1807
"Cc1cc(C)c(Oc2cc(Nc3ccc(C#N)cc3)ncc2C(=O)NCc2cn(Cc3ccccc3C)nn2)c(C)c1 [3a1, N-((1-(2-methylbenzyl)-1H-1,2,3-triazol-4-yl)methyl)-6-((4-cyanophenyl)amino)-4(mesityloxy)nicotinamide]",SI IIIB,WT HIV-1 strain (IIIB) [1],≥2132
"Cc1ccnc2c1NC(=O)c1cccnc1N2C1CC1 [NVP, Nevirapine]",EC50,"[5]; Human immunodeficiency virus 1, MT4, read-out: EC50 L100I",830 ± 320 nM
same,EC50,[6],9610 ± 1860 nM
"C#CCNC(=O)c1cnc(Nc2ccc(C#N)cc2)cc1Oc1c(C)cc(C)cc1C [L-6b5, 6-((4-cyanophenyl)amino)-4-(mesityloxy)-N-(prop-2-yn-1-yl)nicotinamide]",SI RES056,[7]; ratio of CC50/EC50,12
same,EC50,"[7]; read-out: EC50 RES056, MT-4 cells",6100 ± 540 nM
same,SI IIIB,WT HIV-1 strain (IIIB) [8]; ratio of CC50/EC50,2471
same,EC50,"WT HIV-1 strain (IIIB) [8]; read-out: EC50 IIIB, MT-4 cells",29 ± 5 nM
same,CC50,MT-4 cells,73000 ± 26900 nM
"Cc1cc(C)c(Oc2cc(Nc3ccc(C#N)cc3)ncc2C(=O)NCc2cn(Cc3ccc(Cl)cc3)nn2)c(C)c1 [3a13, N-((1-(4-chlorobenzyl)-1H-1,2,3-triazol-4-yl)methyl)-6-((4-cyanophenyl)amino)-4-(mesityloxy)nicotinamide]",SI IIIB,WT HIV-1 strain (IIIB) [1],≥620
CCOc1ccnc(CCNC(=S)Nc2ccc(Cl)cn2)c1F [PETT-2],IC50,HIV-1 RT,5 nM
"Cc1cc(C)c(Oc2cc(Nc3ccc(C#N)cc3)ncc2C(=O)NCc2cn(Cc3ccccc3C#N)nn2)c(C)c1 [3a4, N-((1-(2-cyanobenzyl)-1H-1,2,3-triazol-4-yl)methyl)-6-((4-cyanophenyl)amino)-4-(mesityloxy)nicotinamide]",SI IIIB,WT HIV-1 strain (IIIB) [1],>5589
same,SI RES056,[2],X1
"Cc1cc(C)c(Oc2cc(Nc3ccc(C#N)cc3)ncc2C(=O)NCc2cn(CCC#N)nn2)c(C)c1 [3b2, N-((1-(2-cyanoethyl)-1H-1,2,3-triazol-4-yl)methyl)-6-((4-cyanophenyl)amino)-4-(mesityloxy)nicotinamide]",SI IIIB,WT HIV-1 strain (IIIB) [1],2044
same,EC50 RES056,[2],low micromolar concentration
"Cc1cc(C)c(Oc2cc(Nc3ccc(C#N)cc3)ncc2C(=O)NCc2cn(Cc3cccc([N+](=O)[O-])c3)nn2)c(C)c1 [3a10, N-((1-(3-nitrobenzyl)-1H-1,2,3-triazol-4-yl)methyl)-6-((4-cyanophenyl)amino)-4-(mesityloxy)nicotinamide]",SI IIIB,WT HIV-1 strain (IIIB) [1],≥4220
"Cc1cc(C)c(Oc2cc(Nc3ccc(C#N)cc3)ncc2C(=O)NCc2cn(Cc3ccccc3[N+](=O)[O-])nn2)c(C)c1 [3a5, N-((1-(2-nitrobenzyl)-1H-1,2,3-triazol-4-yl)methyl)-6-((4-cyanophenyl)amino)-4-(mesityloxy)nicotinamide]",SI IIIB,WT HIV-1 strain (IIIB) [1],>3724
same,SI RES056,[2],X1
"Cc1cc(C)c(Oc2cc(Nc3ccc(C#N)cc3)ncc2C(=O)NCc2cn(Cc3ccc(F)cc3)nn2)c(C)c1 [3a12, N-((1-(4-fluorobenzyl)-1H-1,2,3-triazol-4-yl)methyl)-6-((4-cyanophenyl)amino)-4-(mesityloxy)nicotinamide]",SI IIIB,WT HIV-1 strain (IIIB) [1],≥2056
"O=C1Nc2ccc(Cl)cc2[C@@](C#CC2CC2)(C(F)(F)F)O1 [EFV, Efavirenz]",EC50,"[9]; Human immunodeficiency virus 1, MT4, read-out: EC50 F227L + V106A",210 ± 8 nM
same,EC50,[6],340 ± 10 nM
"Cc1cc(C)c(Oc2cc(Nc3ccc(C#N)cc3)ncc2C(=O)NCc2cn(Cc3cccc(F)c3)nn2)c(C)c1 [3a7, N-((1-(3-fluorobenzyl)-1H-1,2,3-triazol-4-yl)methyl)-6-((4-cyanophenyl)amino)-4-(mesityloxy)nicotinamide]",SI IIIB,WT HIV-1 strain (IIIB) [1],≥2608
"Cc1cc(C)c(Oc2cc(Nc3ccc(C#N)cc3)ncc2C(=O)NCc2cn(CC(=O)N3CCCC3)nn2)c(C)c1 [3b8, 6-((4-cyanophenyl)amino)-4-(mesityloxy)-N-((1-(2-oxo-2-(pyrrolidin-1-yl)ethyl)-1H-1,2,3-triazol-4-yl)methyl)nicotinamide]",EC50 RES056,[2],low micromolar concentration
"Cc1cc(C)c(Oc2cc(Nc3ccc(C#N)cc3)ncc2C(=O)NCc2cn(CC(=O)N3CCOCC3)nn2)c(C)c1 [3b9, 6-((4-cyanophenyl)amino)-4-(mesityloxy)-N-((1-(2-morpholino-2-oxoethyl)-1H-1,2,3-triazol-4-yl)methyl)nicotinamide]",SI IIIB,WT HIV-1 strain (IIIB) [1],9279
same,SI,wild-type HIV-1 (NL4-3),>10.8
same,EC50 RES056,[2],low micromolar concentration
"Cc1cc(C)c(Oc2cc(Nc3ccc(C#N)cc3)ncc2C(=O)NCc2cn(CC(N)=O)nn2)c(C)c1 [3b7, N-((1-(2-amino-2-oxoethyl)-1H-1,2,3-triazol-4-yl)methyl)-6-((4-cyanophenyl)amino)-4-(mesityloxy)nicotinamide]",EC50 RES056,[2],low micromolar concentration
"CC(C)Nc1cccnc1N1CCN(C(=O)c2cc3cc(NS(C)(=O)=O)ccc3[nH]2)CC1 [DLV, Delavirdine]",SI L100I,"[5]; ratio of CC50/EC50, MT-4 cells",14
same,SI F227L + V106A,"[9]; ratio of CC50/EC50, MT-4 cells",16
same,CC50 at 5 days,[10],36800 nM
same,SI E138K,"[3]; ratio of CC50/EC50, MT-4 cells",715
same,SI Y181C,"[4]; ratio of CC50/EC50, MT-4 cells",15
same,SI K103 N,[11],12
same,SI Y188L,"[6]; ratio of CC50/EC50, MT-4 cells",44
"Cc1cc(C)c(Oc2cc(Nc3ccc(C#N)cc3)ncc2C(=O)NCc2cn(CCCO)nn2)c(C)c1 [3b1, 6-((4-cyanophenyl)amino)-N-((1-(3-hydroxypropyl)-1H-1,2,3-triazol-4-yl)methyl)-4-(mesityloxy)nicotinamide]",EC50 RES056,[2],low micromolar concentration
"Cc1cc(C#N)cc(C)c1Oc1nc(Nc2ccc(C#N)cc2)nc(N)c1Br [ETR, Etravirine]",CC50 at 5 days,[10],2460 nM
"Cc1cc(C)c(Oc2cc(Nc3ccc(C#N)cc3)ncc2C(=O)NCc2cn(Cc3ccccc3F)nn2)c(C)c1 [3a2, N-((1-(2-fluorobenzyl)-1H-1,2,3-triazol-4-yl)methyl)-6-((4-cyanophenyl)amino)-4-(mesityloxy)nicotinamide]",SI IIIB,WT HIV-1 strain (IIIB) [1],>2348
same,SI RES056,[2],X1
